Data as given in the C3SDB collision cross section collection.
“And” between values parts separate entries of the source, which are not always exact repeats. Equal values may be shown once. Where a name gives a salt, the structure may show the parent alone.

Settings: [M+H]+; instrument: TW; calibrated with polyalanine and drug standards

collision cross section (N2) | Structure (SMILES)
171.2 Å² | COc1cc(Cc2cnc(N)nc2N)cc(OC)c1OC [TRIMETHOPRIM]
141.1 Å² | NC(Cc1ccc(F)cc1)C(=O)O (stereo not given) [p-FLUOROPHENYLALANINE]
197.2 Å² | CC(=O)O[C@]1(C(C)=O)CC[C@H]2[C@@H]3C[C@H](C)C4=CC(=O)CC[C@]4(C)[C@H]3CC[C@@]21C [MEDROXYPROGESTERONE ACETATE]
135.8 Å² | CCC(C(N)=O)c1ccccc1 (stereo not given) [FENBUTYRAMIDE]
146.9 Å² | CCC1(c2ccccc2)C(=O)NCNC1=O [PRIMIDONE]
204.1 Å² | C=C1[C@H]2CC[C@@]3(C)[C@H](c4ccoc4)OC(=O)C[C@]13O[C@H]1C[C@H](O)C(C)(C)[C@H](CC(=O)OC)[C@]12C [3-DEOXY-3beta-HYDROXYANGOLENSIC ACID METHYL ESTER]
209.7 Å² | CCCCCc1c2c(cc(O)c1C(=O)O)OC(=O)c1c(cc(OC)cc1C(=O)CCCC)O2 [LOBARIC ACID]
231.9 Å² | C[C@@H]1O[C@@H](O[C@H]2[C@H](Oc3cc(O)c4c(=O)cc(-c5ccc(O)cc5)oc4c3)O[C@H](CO)[C@@H](O)[C@@H]2O)[C@H](O)[C@H](O)[C@H]1O [RHOIFOLIN]
146 Å² | C=C1CCC2C(CC2(C)C)C(=O)CCC1O (stereo not given) [ISOKOBUSONE]
159.4 Å² | Cc1cccc2c3c(ccc12)C1=C(C(=O)C3=O)[C@@H](C)CO1 [DIHYDROTANSHINONE I]
126.9 Å² | C=CCSSSCC=C [DIALLYL TRISULFIDE]
176.7 Å² | COc1cc(OC)c2c(OC)c(-c3ccc4c(c3)OCO4)c(=O)oc2c1 [DERRUSNIN]
135.8 Å² | CCc1cc(C(N)=S)ccn1 [ETHIONAMIDE]
221.3 Å² | CC(C)(O)CC[C@@H](O)[C@](C)(O)[C@H]1CC[C@@]2(O)C3=CC(=O)[C@@H]4C[C@@H](O)[C@@H](O)C[C@]4(C)[C@H]3CC[C@]12C [CRUSTECDYSONE]
205.2 Å² | COc1ccccc1OCC(O)CN1CCN(CC(=O)Nc2c(C)cccc2C)CC1 (stereo not given) [RANOLAZINE]
168.1 Å² and 184.7 Å² | CCn1cc(C(=O)O)c(=O)c2cc(F)c(N3CCNCC3)nc21 [ENOXACIN]
177.1 Å² | COc1cc(O)c(C(=O)/C=C/c2ccc(OC)c(O)c2)c(OC)c1 [2',3-DIHYDROXY-4,4',6'-TRIMETHOXYCHALCONE]
150.1 Å² | C=C(C)[C@H]1COc2cc3oc(=O)ccc3cc2O1 [OBLIQUIN]
174.7 Å² | NC(N)=NC(=O)c1nc(Cl)c(N2CCCCCC2)nc1N [N,N-HEXAMETHYLENEAMILORIDE]
200.6 Å² | O=C(/C=C/c1ccccc1)c1ccc(O[C@@H]2O[C@H](CO)[C@@H](O)[C@H](O)[C@H]2O)cc1O [2',4'-DIHYDROXYCHALCONE 4'-GLUCOSIDE]

Structure (SMILES) | collision cross section (N2)
C[C@@H]1CC[C@@]2(NC1)O[C@H]1C[C@H]3[C@@H]4CC=C5C[C@@H](O)CC[C@]5(C)[C@H]4CC[C@]3(C)[C@H]1[C@@H]2C [SOLASODINE] | 207.8 Å²
OC[C@@H](O)[C@H]1O[C@@H]2O[C@H](C(Cl)(Cl)Cl)O[C@@H]2[C@H]1O [CHLORALOSE] | 163.2 Å²
CN1C2C[C@H](OC(=O)[C@H](CO)c3ccccc3)C[C@H]1[C@@H](O)C2 [ANISODAMINE HYDROBROMIDE] | 171.1 Å²
COC1=CC(=O)O[C@@H](/C=C/c2ccccc2)C1 [KAWAIN] | 149.4 Å²

Same assay, conditions: [M+Na]+; instrument: TW; calibrated with polyalanine and drug standards

collision cross section (N2) [Å²] | Structure (SMILES)
267 | C=CC[C@@H]1/C=C(\C)C[C@H](C)C[C@H](OC)[C@H]2O[C@@](O)(C(=O)C(=O)N3CCCC[C@H]3C(=O)O[C@H](/C(C)=C/[C@@H]3CC[C@@H](O)[C@H](OC)C3)[C@H](C)[C@@H](O)CC1=O)[C@H](C)C[C@@H]2OC [TACROLIMUS]
